Measurements as given in patent publication US9340493B2, “Hydroxamic acid derivatives useful as antibacterial agents” (Pfizer Inc., priority 2008, dated 2016).
Values after ≈ are worked out from the molar mass of the structure shown.

Columns and labels:
[1] = target: T1, Pseudomonas aeruginosa LpxC enzyme (Pseudomonas aeruginosa, UniProt P47205); test: IC50 assay, LpxC enzyme from P. aeruginosa; assay type: biochemical; conditions: 0.5 nM enzyme, 25° C., pH 8.0, 20 min; ** = average of 2-8 assays
T1 construct: made in house; host or cells: E. coli
T1 sequence (P47205 1-303): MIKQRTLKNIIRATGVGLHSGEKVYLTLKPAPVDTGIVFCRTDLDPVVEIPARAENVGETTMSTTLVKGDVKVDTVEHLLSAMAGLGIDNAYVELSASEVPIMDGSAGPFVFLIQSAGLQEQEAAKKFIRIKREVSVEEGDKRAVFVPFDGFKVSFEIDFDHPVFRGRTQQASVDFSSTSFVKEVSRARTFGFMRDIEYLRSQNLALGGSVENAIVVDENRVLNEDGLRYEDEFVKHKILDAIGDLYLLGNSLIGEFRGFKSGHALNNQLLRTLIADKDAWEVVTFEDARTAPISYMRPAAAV
Method in brief: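 P. aeruginosa LpxC (0.5 nM, expressed in E. coli) reacted with 0.5 uM ³H-acetyl-labelled UDP-3-O-(R-3-hydroxydecanoyl)-GlcNAc in 50 mM sodium phosphate pH 8.0 with 1 mg/ml BSA at 25 °C for 20 min. Charcoal stopped the reaction, and filtrate radioactivity was counted by scintillation after no-enzyme background subtraction.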

P. aeruginosa PAO280 = test: MIC determination, P. aeruginosa PAO280; assay type: cell-based; conditions: Pseudomonas aeruginosa, PAO280, read-out: MIC (ug/mL) P. aeruginosa PAO280
Method in brief: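 Broth dilution MIC per CLSI M7-A7/M100-S18 guidelines. Strain PAO280 lacks efflux pumps MexAB-oprM, MexXY and MexZ.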

P. aeruginosa UI-18 = test: MIC determination, P. aeruginosa UI-18; assay type: cell-based; conditions: Pseudomonas aeruginosa, UI18; wild-type; * = arithmetic mean of 2-6 MIC determinations; read-out: MIC (ug/mL) P. aeruginosa UI-18
Method in brief: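 MIC by broth dilution following CLSI M7-A7 and M100-S18 guidelines, tested against wild-type P. aeruginosa UI-18.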

[2] = tested on: Acinetobacter baumanii/haemolyticus; test: MIC determination, A. baumanii/haemolyticus; assay type: cell-based; conditions: Acinetobacter baumannii; multidrug-resistant clinical isolate; * = arithmetic mean of 2-6 MIC determinations; read-out: MIC (ug/mL) A. baumanii/haemolyticus
Method in brief: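 MICs were determined by CLSI broth dilution (M7-A7, M100-S18) against a multidrug-resistant clinical isolate of Acinetobacter baumanii/haemolyticus.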

Enterobacter aerogenes = test: MIC determination, E. aerogenes; assay type: cell-based; conditions: Klebsiella aerogenes; quinolone-resistant, ESBL-expressing clinical isolate; * = arithmetic mean of 2-6 MIC determinations; read-out: MIC (ug/mL) E. aerogenes
Method in brief: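 Clinical E. aerogenes isolate, quinolone-resistant and ESBL-expressing. MIC measured in vitro by dilution testing according to CLSI guidelines (M7-A7, M100-S18).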

Escherichia coli EC-1 = test: MIC determination, E. coli EC-1; assay type: cell-based; conditions: EC1, EC-1: VOGEL, * = arithmetic mean of 2-6 MIC determinations, read-out: MIC (ug/mL) E. coli EC-1
Method in brief: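 Minimum inhibitory concentration against Escherichia coli EC-1 was determined in vitro by dilution susceptibility testing under CLSI M7-A7 and M100-S18 guidelines.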

Klebsiella pneumoniae = test: MIC determination, K. pneumoniae; assay type: cell-based; conditions: ciprofloxacin-resistant, ESBL-expressing clinical isolate, * = arithmetic mean of 2-6 MIC determinations, read-out: MIC (ug/mL) K. pneumoniae
Method in brief: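 MIC determined by broth dilution per CLSI M7-A7 and M100-S18 guidelines. Strain: ciprofloxacin-resistant, ESBL-expressing clinical isolate of K. pneumoniae.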

[3] = tested on: Staphylococcus aureus ATCC 29213; test: MIC determination, S. aureus ATCC 29213; assay type: cell-based; conditions: ATCC29213, CLSI quality control reference strain, * = arithmetic mean of 2-6 MIC determinations, read-out: MIC (ug/mL) S. aureus ATCC 29213
Method in brief: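 MIC was measured by dilution susceptibility testing following CLSI guidelines (M7-A7; M100-S18). The test organism is the CLSI quality-control reference strain.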

Compound	IC50 [1]	MIC (P. aeruginosa PAO280)	MIC (P. aeruginosa UI-18)	MIC [2]	MIC (Enterobacter aerogenes)	MIC (Escherichia coli EC-1)	MIC (Klebsiella pneumoniae)	MIC [3]
C[S+]([O-])c1cc([C@H](O)[C@](C)(OCc2ccc(-c3ccc(F)cc3)cc2)C(=O)NO)no1 (stereo partly drawn) [Example 44, (2S,3S)-2-[(4′-fluorobiphenyl-4-yl)methoxy]-N,3-dihydroxy-2-methyl-3-[5-(methylsulfinyl)isoxazol-3-yl]propanamide]	0.000283 µM	0.015 µg/mL (≈ 0.0334 µM)	1 µg/mL (≈ 2.23 µM)	32 µg/mL (≈ 71.4 µM)	> 64 µg/mL	8 µg/mL (≈ 17.8 µM)	32 µg/mL (≈ 71.4 µM)	> 64 µg/mL
C[C@@](OCc1ccc(-c2ccccc2)cc1)(C(=O)NO)[C@@H](O)c1ccn[nH]1 [Example 45, (2S,3S)-2-(biphenyl-4-ylmethoxy)-N,3-dihydroxy-2-methyl-3-(1H-pyrazol-3-yl)propanamide]	0.00195 µM	0.25 µg/mL (≈ 0.68 µM)	16 µg/mL (≈ 43.5 µM)	> 32 µg/mL	> 32 µg/mL	> 32 µg/mL	> 32 µg/mL	> 32 µg/mL
C[C@@](OCc1ccc(-c2ccc(-c3cnco3)cc2)cc1)(C(=O)NO)[C@@H](O)c1ccc(CO)o1 [Example 46, (2S,3S)-N,3-dihydroxy-3-[5-(hydroxymethyl)-2-furyl]-2-methyl-2-{[4′-(1,3-oxazol-5-yl)biphenyl-4-yl]methoxy}propanamide]	0.000366 µM	0.25 µg/mL (≈ 0.538 µM)	4 µg/mL (≈ 8.61 µM)	> 8 µg/mL	> 8 µg/mL	> 8 µg/mL	> 8 µg/mL	> 8 µg/mL
CC(OCc1ccc(-c2ccccc2)cc1)(C(=O)NO)C1(O)CCC1 (stereo not shown) [Example 48, 2-(biphenyl-4-ylmethoxy)-N-hydroxy-2-(1-hydroxycyclobutyl)propanamide]	0.00623 µM	< 0.06 µg/mL	16 µg/mL (≈ 46.9 µM)	> 64 µg/mL	> 64 µg/mL	> 64 µg/mL	> 64 µg/mL	> 64 µg/mL
CNC(=O)C(C)(OCc1ccc(-c2ccc(-c3cc(CO)no3)cc2)cc1)C(=O)NO (stereo not shown) [Example 49, N-hydroxy-2-({4′-[3-(hydroxymethyl)isoxazol-5-yl]biphenyl-4-yl}methoxy)-N′,2-dimethylmalonamide]	0.00175 µM	0.045 µg/mL (≈ 0.106 µM)	2 µg/mL (≈ 4.7 µM)	> 16 µg/mL	> 16 µg/mL	8 µg/mL (≈ 18.8 µM)	> 16 µg/mL	> 16 µg/mL
CCCc1ccc(-c2ccc(COC(CO)(CO)C(=O)NO)cc2)cc1 [Example 51, N,3-dihydroxy-2-(hydroxymethyl)-2-[(4′-propylbiphenyl-4-yl)methoxy]propanamide]	0.00186 µM	1 µg/mL (≈ 2.78 µM)	> 16 µg/mL	> 16 µg/mL	> 16 µg/mL	> 16 µg/mL	> 16 µg/mL	> 16 µg/mL
Cc1cc(CNC(=O)C(C)(OCc2ccc(-c3ccc(F)cc3)nc2)C(=O)NO)no1 (stereo not shown) [Example 53, 2-{[6-(4-fluorophenyl)pyridin-3-yl]methoxy}-N-hydroxy-2-methyl-N′-[(5-methylisoxazol-3-yl)methyl]malonamide]	0.0143 µM	0.5 µg/mL (≈ 1.17 µM)	32 µg/mL (≈ 74.7 µM)	64 µg/mL (≈ 149 µM)	> 64 µg/mL	16 µg/mL (≈ 37.3 µM)	> 64 µg/mL	> 64 µg/mL
CC(CO)(OCc1ccc(-c2ccc(-c3cc(CN4CCOCC4)no3)cc2)cc1)C(=O)NO (stereo not shown) [Example 55, N,3-dihydroxy-2-methyl-2-({4′-[3-(morpholin-4-ylmethyl)isoxazol-5-yl]biphenyl-4-yl}methoxy)propanamide]	0.00399 µM	0.5 µg/mL (≈ 1.07 µM)	32 µg/mL (≈ 68.4 µM)	> 64 µg/mL	> 64 µg/mL	> 64 µg/mL	> 64 µg/mL	> 64 µg/mL
CC(OCc1ccc(-c2ccccc2)cc1)(C(=O)NO)C(=O)NCc1nnn[nH]1 (stereo not shown) [Example 57, 2-(biphenyl-4-ylmethoxy)-N-hydroxy-2-methyl-N′-(1H-tetrazol-5-ylmethyl)malonamide]	0.00134 µM	4 µg/mL (≈ 10.1 µM)	> 64 µg/mL	> 64 µg/mL	> 64 µg/mL	> 64 µg/mL	> 64 µg/mL	> 64 µg/mL
CC(CO)(OCc1ccc(-c2ccc(Cl)cc2)cc1)C(=O)NO (stereo not shown) [Example 62, 2-[(4′-chlorobiphenyl-4-yl)methoxy]-N,3-dihydroxy-2-methylpropanamide]	0.00417 µM	1 µg/mL (≈ 2.98 µM)	32 µg/mL (≈ 95.3 µM)	> 32 µg/mL	> 32 µg/mL	> 32 µg/mL	> 32 µg/mL	> 32 µg/mL
CC(CO)(OCc1ccc(-c2ccc(F)cc2F)cc1)C(=O)NO (stereo not shown) [Example 66, 2-[(2′,4′-difluorobiphenyl-4-yl)methoxy]-N,3-dihydroxy-2-methylpropanamide]	0.00332 µM	1.5 µg/mL (≈ 4.45 µM)	64 µg/mL (≈ 190 µM)	> 64 µg/mL	> 64 µg/mL	> 64 µg/mL	> 64 µg/mL	> 64 µg/mL
CC(OCc1ccc(-c2ccccc2)cc1)(C(=O)NO)C(=O)NCc1cc(-c2ccccc2)on1 (stereo not shown) [Example 67, 2-(biphenyl-4-ylmethoxy)-N-hydroxy-2-methyl-N′-[(5-phenylisoxazol-3-yl)methyl]malonamide]	0.0032 µM	0.5 µg/mL (≈ 1.06 µM)	4 µg/mL (≈ 8.48 µM)	8 µg/mL (≈ 17 µM)	> 16 µg/mL	16 µg/mL (≈ 33.9 µM)	> 16 µg/mL	> 16 µg/mL
CC(OCc1ccc(-c2ccccc2)cc1)(C(=O)NO)C(=O)NCc1nc(-c2ccccc2)no1 (stereo not shown) [Example 69, 2-(biphenyl-4-ylmethoxy)-N-hydroxy-2-methyl-N′-[(3-phenyl-1,2,4-oxadiazol-5-yl)methyl]malonamide]	0.00446 µM	0.75 µg/mL (≈ 1.59 µM)	12 µg/mL (≈ 25.4 µM)	16 µg/mL (≈ 33.9 µM)	> 16 µg/mL	16 µg/mL (≈ 33.9 µM)	> 16 µg/mL	> 16 µg/mL
Cc1cccnc1CCNC(=O)C(C)(OCc1ccc(-c2ccccc2)cc1)C(=O)NO (stereo not shown) [Example 70, 2-(biphenyl-4-ylmethoxy)-N-hydroxy-2-methyl-N′-[2-(3-methylpyridin-2-yl)ethyl]malonamide]	0.00804 µM	1 µg/mL (≈ 2.31 µM)	32 µg/mL (≈ 73.8 µM)	32 µg/mL (≈ 73.8 µM)	> 64 µg/mL	16 µg/mL (≈ 36.9 µM)	> 64 µg/mL	> 64 µg/mL
CC(OCc1ccc(-c2ccccc2)cc1)(C(=O)NO)C(=O)NCc1ccncn1 (stereo not shown) [Example 71, 2-(biphenyl-4-ylmethoxy)-N-hydroxy-2-methyl-N′-(pyrimidin-4-ylmethyl)malonamide]	0.00394 µM	0.125 µg/mL (≈ 0.308 µM)	16 µg/mL (≈ 39.4 µM)	> 64 µg/mL	> 64 µg/mL	32 µg/mL (≈ 78.7 µM)	> 64 µg/mL	> 64 µg/mL
CC(OCc1ccc(-c2ccccc2)cc1)(C(=O)NO)C(=O)NCc1cn2ccccc2n1 (stereo not shown) [Example 83, 2-(biphenyl-4-ylmethoxy)-N-hydroxy-N′-(imidazo[1,2-a]pyridin-2-ylmethyl)-2-methylmalonamide]	0.00218 µM	0.125 µg/mL (≈ 0.281 µM)	8 µg/mL (≈ 18 µM)	64 µg/mL (≈ 144 µM)	> 64 µg/mL	16 µg/mL (≈ 36 µM)	64 µg/mL (≈ 144 µM)	> 32 µg/mL
Cc1cc(CNC(=O)C(C)(OCc2ccc(-c3ccc(-c4cc(CO)no4)cc3)cc2)C(=O)NO)no1 (stereo not shown) [Example 84, N-hydroxy-2-({4′-[3-(hydroxymethyl)isoxazol-5-yl]biphenyl-4-yl}methoxy)-2-methyl-N′-[(5-methylisoxazol-3-yl)methyl]malonamide]	0.000861 µM	0.06 µg/mL (≈ 0.118 µM)	2 µg/mL (≈ 3.95 µM)	> 64 µg/mL	16 µg/mL (≈ 31.6 µM)	1 µg/mL (≈ 1.97 µM)	8 µg/mL (≈ 15.8 µM)	> 64 µg/mL
